Legend:
[1] = biological target: T1, NEP (Rattus norvegicus, UniProt P07861); experiment: "In vitro" NEP-inhibitory activity (rat kidney cortex membranes, [3H][Leu5]-enkephaline); type: biochemical; conditions: membranes from rat kidney cortex
T1 construct: Membranes from kidney cortex were prepared according to the following procedure; from tissue; host or cells: rat kidney cortex membranes
T1 sequence (P07861 1-750): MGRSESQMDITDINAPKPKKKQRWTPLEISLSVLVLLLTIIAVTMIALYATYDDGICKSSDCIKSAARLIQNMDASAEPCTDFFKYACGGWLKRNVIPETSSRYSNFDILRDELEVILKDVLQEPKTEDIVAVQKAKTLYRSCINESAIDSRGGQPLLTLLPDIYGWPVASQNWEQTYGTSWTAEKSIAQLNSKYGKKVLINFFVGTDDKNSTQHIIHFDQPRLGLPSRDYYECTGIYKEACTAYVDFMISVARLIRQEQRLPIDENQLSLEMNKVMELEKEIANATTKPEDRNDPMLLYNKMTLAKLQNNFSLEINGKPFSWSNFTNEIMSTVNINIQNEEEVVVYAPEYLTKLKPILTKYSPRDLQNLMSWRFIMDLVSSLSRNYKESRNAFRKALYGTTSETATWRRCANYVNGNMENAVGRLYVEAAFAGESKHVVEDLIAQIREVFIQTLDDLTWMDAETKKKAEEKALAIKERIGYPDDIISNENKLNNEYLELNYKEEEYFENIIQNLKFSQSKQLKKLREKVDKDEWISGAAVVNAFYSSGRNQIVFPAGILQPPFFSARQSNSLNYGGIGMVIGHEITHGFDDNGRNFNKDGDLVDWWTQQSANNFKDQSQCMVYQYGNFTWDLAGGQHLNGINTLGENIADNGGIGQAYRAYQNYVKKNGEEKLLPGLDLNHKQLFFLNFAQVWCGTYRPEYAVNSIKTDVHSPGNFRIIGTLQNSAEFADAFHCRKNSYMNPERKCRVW
Experimental: a) NEP-inhibitory activity
Membranes from kidney cortex were prepared according to the following procedure.
Cortex was carefully dissected, finely minced and suspended in a homogenization buffer (10 mM sodium phosphate pH 7.4 containing 1 mM MgCl2, 30 mM NaCl, 0.02% NaN3) 1:15 weight/volume.
The tissue was then homogenized for 30 seconds using an Ultra-Turrax homogenizer.
The membranes were collected from the buffer/sucrose interface, washed twice with 50 mM TRIS/HCl buffer (pH 7.4) and resuspended into the same buffer for storage.
The membranes were stored in small aliquots at -80° C. until use.
The NEP-inhibitory activity was evaluated by using the following method.
Incubation (20 minutes at 30° C.) was stopped by adding HCl 0.1M (100 μl).

[2] = biological target: T2, ACE (Oryctolagus cuniculus, UniProt P12822); experiment: "In vitro" ACE-inhibitory activity (FAPGG substrate); type: biochemical; conditions: ACE purified by lung rabbit; tested as lithium salts
T2 construct: ACE (250 mU/ml purified by lung rabbit, EC 3.4.15.1 SIGMA); purchased SIGMA; host or cells: rabbit lung
T2 sequence (P12822 34-1310): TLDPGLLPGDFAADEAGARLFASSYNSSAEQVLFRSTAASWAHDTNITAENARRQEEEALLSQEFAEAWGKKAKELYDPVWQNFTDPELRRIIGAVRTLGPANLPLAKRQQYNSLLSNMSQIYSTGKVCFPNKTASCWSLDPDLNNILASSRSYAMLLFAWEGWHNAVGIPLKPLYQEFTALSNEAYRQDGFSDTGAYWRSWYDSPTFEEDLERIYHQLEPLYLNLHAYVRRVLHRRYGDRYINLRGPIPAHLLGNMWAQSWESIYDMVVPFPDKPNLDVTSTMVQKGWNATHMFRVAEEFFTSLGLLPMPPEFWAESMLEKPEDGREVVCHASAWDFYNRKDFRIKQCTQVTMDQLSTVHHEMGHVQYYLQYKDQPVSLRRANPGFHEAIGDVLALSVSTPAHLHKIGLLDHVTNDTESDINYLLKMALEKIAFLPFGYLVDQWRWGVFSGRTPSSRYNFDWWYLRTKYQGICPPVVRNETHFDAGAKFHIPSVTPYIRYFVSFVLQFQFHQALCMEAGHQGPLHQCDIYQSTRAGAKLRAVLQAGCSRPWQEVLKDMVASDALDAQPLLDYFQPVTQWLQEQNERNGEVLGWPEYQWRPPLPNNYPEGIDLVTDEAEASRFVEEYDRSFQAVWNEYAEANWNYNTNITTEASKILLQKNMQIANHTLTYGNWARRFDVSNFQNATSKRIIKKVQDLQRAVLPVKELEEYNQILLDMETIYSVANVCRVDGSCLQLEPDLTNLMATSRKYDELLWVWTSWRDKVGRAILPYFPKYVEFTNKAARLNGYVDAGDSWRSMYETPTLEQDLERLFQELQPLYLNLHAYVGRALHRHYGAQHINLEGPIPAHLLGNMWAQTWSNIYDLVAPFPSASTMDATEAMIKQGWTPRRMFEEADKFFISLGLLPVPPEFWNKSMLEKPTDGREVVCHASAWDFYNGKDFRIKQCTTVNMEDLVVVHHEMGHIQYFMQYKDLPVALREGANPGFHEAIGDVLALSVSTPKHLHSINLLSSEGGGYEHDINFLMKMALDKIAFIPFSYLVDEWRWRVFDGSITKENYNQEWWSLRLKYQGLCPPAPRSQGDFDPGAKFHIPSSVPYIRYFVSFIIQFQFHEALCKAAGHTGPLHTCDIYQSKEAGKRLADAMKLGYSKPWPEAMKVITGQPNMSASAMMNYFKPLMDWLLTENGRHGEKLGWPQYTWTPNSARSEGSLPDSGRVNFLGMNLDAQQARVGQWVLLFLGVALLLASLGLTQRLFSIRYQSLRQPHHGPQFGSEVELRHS
Experimental: b) ACE-inhibitory activity
The reaction was started by adding furylacryloylphenylalanylglycylglycine 0.8 mM (FAPGG-SIGMA).
Contemporaneously, by using a Beckman DU-50 spectrophotometer provided with a program for calculating delta A/minutes and regression coefficients of the enzyme kinetics curves, the absorbance at 340 nm was recorded in continuo for 5 minutes.

Compound	NEP-inhibitory activity IC50 (nM) ([1]; tested as lithium salts)	NEP inhibition ([1]; at a concentration corresponding to 10^-8 M)	IC50 [2]
C[C@H](CS)C(=O)N1CCC[C@H]1C(=O)O [Captopril]	not active	–	–
O=C([O-])[C@H](Cc1ccccc1)NC(=O)[C@H](Cc1ccccc1)NP(=O)(O)CCCCc1ccccc1.O=C([O-])[C@H](Cc1ccccc1)NC(=O)[C@H](Cc1ccccc1)NP(=O)(O)CCCCc1ccccc1.[Li+].[Li+] [Compound R-5, N-[N'-(4-phenyl)butylphosphonyl-L-phenylalanyl]-L-phenylalanine dilithium salt]	–	42%	20 nM

— patent publication US5760285A, “Phosphonyldipeptides useful in the treatment of cardiovascular diseases” (priority 1994, dated 1998)
